Results published in PMC8807614 (Scientific Reports, 2022).
pEC50: −log10 of the molar value. Entries after “also recorded” stand apart in the source; their conditions may differ. Peptide text beside a SMILES is read from it.

Assays:
[1] = target: T1, human prolactin releasing peptide receptor (GPR10) (Homo sapiens, UniProt P49683); assay: GPR10 functional activity assay (IP1, HTRF); format: cell-based; details: Chem-1 cells stably expressing human GPR10, 10.000 cells/well; HTRF IP1 (CisBio); 30 min at 37 °C; IP1 stimulation buffer with 0.05% casein; 11 concentrations
T1 sequence (P49683 1-370): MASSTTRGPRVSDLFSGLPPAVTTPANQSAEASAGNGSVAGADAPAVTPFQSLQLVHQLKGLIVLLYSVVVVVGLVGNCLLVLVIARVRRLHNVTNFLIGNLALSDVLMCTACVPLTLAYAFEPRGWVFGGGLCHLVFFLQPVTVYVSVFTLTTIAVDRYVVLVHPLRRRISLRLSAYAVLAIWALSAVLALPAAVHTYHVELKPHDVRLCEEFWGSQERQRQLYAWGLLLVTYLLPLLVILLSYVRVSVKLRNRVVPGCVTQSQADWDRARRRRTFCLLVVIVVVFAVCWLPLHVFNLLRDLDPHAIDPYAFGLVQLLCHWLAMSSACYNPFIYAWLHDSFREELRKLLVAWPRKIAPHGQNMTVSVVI

[2] = Plasma peptide concentrations 4 h after last dosing in DIO mice; format: in vivo, male C57BL/6 J mice; details: treatment day 6, 1,250 nmol/kg SC BID
Method: (a) Body weight. (b) 24 h food intake. (c) total food intake during treatment phase. (d) total food intake during wash-out phase. (e) Plasma peptide concentrations as measured 4 h after last dosing (treatment day 6). Peptides were administered (SC, BID) at a dose of 1250 nmol/kg (n = 7–8 per group). **p < 0.01, ***p < 0.001 compared to vehicle.
Figure 4 Lipidated metabolites of GUB03385 robustly reduce body weight and food intake in DIO mice. Effect of subchronic treatment (days 0–6) with GUB08248, GUB08251, GUB10194 and GUB10195 followed by 7-day wash-out period (days 7–13, marked in grey). In vivo efficacy was compared to semaglutide (10 nmol/kg, SC, QD, n = 8). (a) Body weight. (b) 24 h food intake. (c) Total food intake during treatment phase. (d) Total food intake during wash-out phase. (e) Plasma peptide concentrations as measured 4 h after last dosing (treatment day 6).
Compounds were freshly prepared in vehicle (PBS with 0.1% BSA, pH 4) just prior to dosing. Semaglutide was purchased from Hoersholm Pharmacy (Hoersholm, Denmark). All animals were single housed two weeks prior to treatment and throughout the remaining of the study period. […] Body weight and food intake (24 h) were measured daily during the treatment period and one week after treatment. […]

[3] = test system: DIO mice; assay: In vivo efficacy of lipidated PrRP31 analogues in DIO mice (body weight, food intake); set-up: species or system male C57BL/6 J mice
Method: For all in vivo studies, male C57BL/6 J mice (5 weeks old, n = 7–8) were purchased from Janvier Labs (Le Genest Saint Isle, France). Individual animals were identified by implantable subcutaneous microchips (PetID Microchip, E-vet, Haderslev, Denmark). Mice were housed in a controlled environment (12 h light/dark cycle, lights on at 3 AM, 21 ± 2 °C, humidity 50 ± 10%) and had ad libitum access to tap water and regular chow (Altromin 1324, Brogaarden, Hørsholm, Denmark) or high-fat diet (60% fat, D12492 Research diet) for up to 47 weeks prior to the initiation of the study. All animal experiments were conducted in accordance to internationally accepted principles for the care and use of laboratory animals. All experiments were approved by The Animal Experimentation Council, Danish Veterinary and Food Administration (license #2013-15-2934-00784) and the Gubra ethics committee. All experiments complied with the ARRIVE guidelines.
Compounds were freshly prepared in vehicle (PBS with 0.1% BSA, pH 4) just prior to dosing. Semaglutide was purchased from Hoersholm Pharmacy (Hoersholm, Denmark). All animals were single housed two weeks prior to treatment and throughout the remaining of the study period. Mice were randomized to treatment according to body weight (n = 7–8 per group) and dosed subcutaneously (SC, 5 ml/kg) for a total of 7 days with vehicle (BID), semaglutide (10 nmol/kg, QD) or peptide analogues (1,250 nmol/kg, BID). All compounds were administered during the light phase. Body weight and food intake (24 h) were measured daily during the treatment period and one week after treatment. In vivo data were subjected to relevant statistical analyses using GraphPad v9.1 software (GraphPad, La Jolla, CA). Statistical evaluation was carried out using Dunnett’s test one-factor linear model (endpoint body weight, food intake, cumulative food intake). A p-value less than 0.05 was considered statistically significant.

[4] = target: human NPFF2R (Homo sapiens, UniProt Q9Y5X5); assay: NPFF2R functional activity assay (cAMP, HTRF); format: cell-based; details: CHO-K1 cells stably expressing human NPFF2R, 1500 cells/well; HTRF cAMP (CisBio); 3 µM forskolin (~90% activity level); 30 min; DPBS, 0.5 mM IBMX, 0.05% casein; 11 concentrations
Method: Figure 3 GPR10 and NPFF2R profiling of in vivo metabolites of GUB03385. […] (b) cAMP measurements in human NPFF2R CHO-K cells (HTRF technology, CisBio) at a fixed concentration of 3 µM forskolin after 30 min. incubation at room temperature with metabolites and the native peptide NPSF. Representative curves of three determinations.
The Homogenous Time Resolved Fluorescence (HTRF) technology optimized for Gq coupled receptors has thoroughly been described in the CisBio IP1 kit manual (#62IPAPEC) and in the cAMP assay kit manual for Gi coupled receptors (#62AM9PEC). Briefly, this technic is based on a competitive immunoassay using cryptate-labelled anti-cAMP or anti-IP1 antibodies and d2-labeled cAMP or IP1. In the absence of cellular cAMP or IP1, the anti-cryptate conjugate may get into proximity to the d2 conjugate and energy (FRET) can be transferred from cryptate to d2. Chem-1 cells stably expressing the human prolactin releasing peptide receptor (GPR10, Eurofins, # HTS057C) and irradiated CHO-K1 cells stably expressing the human NPFF2R (PerkinElmer, #ES-490-CF) were applied as cells in suspension, brought to life from frozen cell stocks immediately before assay performance. 384-Well (Corning, #4513) assay formats with a total assay volume of 20 µl were applied. GPR10 cells (10.000 cells/well) were incubated with agonist peptides and the NPFF2R cells (1500 cells/well) were incubated with agonist peptides and forskolin (~ 90% activity level) for 30 min at 37 °C using IP1 kit stimulation buffer and DPBS (Sigma, #D8537) containing 0.5 mM IBMX (Sigma, # I5879), receptively. Both stimulation buffers were supplemented with 0.05% casein (Sigma, # C4765-10 ml). After addition of HTRF® detection reagents and incubation with shaking (2400 rpm) for one hour at room temperature signals at 620 and 665 nm (raw counts: ratio of 665/620) were detected at a ClarioStar plate reader (BMG Labtech, Ortenberg, Germany). Concentration–response evaluation of compounds was performed with 11 concentrations of agonist peptides (covering 3 decades) and EC50 values were calculated by nonlinear regression using sigmoid concentration–response with variable slope. Data were analysed using GraphPad v9.1 software (GraphPad, La Jolla, CA).

human NPFF2R, sequence (Q9Y5X5 whole entry): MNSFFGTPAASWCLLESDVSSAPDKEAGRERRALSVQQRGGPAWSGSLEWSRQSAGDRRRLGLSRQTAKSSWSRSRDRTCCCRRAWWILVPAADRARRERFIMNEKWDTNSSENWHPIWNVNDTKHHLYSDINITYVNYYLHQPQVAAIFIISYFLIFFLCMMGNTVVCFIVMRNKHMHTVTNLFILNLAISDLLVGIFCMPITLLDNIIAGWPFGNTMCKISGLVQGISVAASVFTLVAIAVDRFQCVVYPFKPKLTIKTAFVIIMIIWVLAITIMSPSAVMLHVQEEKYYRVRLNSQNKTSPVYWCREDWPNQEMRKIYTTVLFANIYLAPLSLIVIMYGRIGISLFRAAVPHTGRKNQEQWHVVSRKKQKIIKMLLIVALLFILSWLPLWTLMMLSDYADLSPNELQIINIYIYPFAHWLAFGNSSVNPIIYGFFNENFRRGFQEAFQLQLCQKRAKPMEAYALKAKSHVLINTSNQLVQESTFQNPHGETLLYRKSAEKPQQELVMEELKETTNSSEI

With `CCCCCCCCCCCCCCCC(=O)N[C@@H](CCC(=O)NCCCC[C@H](NC(=O)[C@@H](NC(=O)[C@H](CCC(=O)O)NC(=O)[C@H](CCSC)NC(=O)[C@H](CO)NC(=O)[C@H](Cc1c[nH]cn1)NC(=O)[C@H](CCCNC(=N)N)NC(=O)[C@H](Cc1c[nH]cn1)NC(=O)[C@@H](NC(=O)[C@H](CCCNC(=N)N)NC(=O)[C@@H](N)CO)[C@@H](C)O)[C@@H](C)CC)C(=O)N[C@H](C(=O)N1CCC[C@H]1C(=O)N[C@@H](CC(=O)O)C(=O)N[C@H](C(=O)N[C@@H](CC(N)=O)C(=O)N1CCC[C@H]1C(=O)N[C@@H](C)C(=O)N[C@@H](Cc1c[nH]c2ccccc12)C(=O)N[C@@H](Cc1ccc(O)cc1)C(=O)N[C@@H](C)C(=O)N[C@@H](CO)C(=O)N[C@@H](CCCNC(=N)N)C(=O)NCC(=O)N[C@H](C(=O)N[C@@H](CCCNC(=N)N)C(=O)N1CCC[C@H]1C(=O)N[C@H](C(=O)NCC(=O)N[C@@H](CCCNC(=N)N)C(=O)N[C@@H](Cc1ccccc1)C(N)=O)C(C)C)[C@@H](C)CC)[C@@H](C)CC)[C@@H](C)O)C(=O)O` [GUB02647] (HELM PEPTIDE1{S.R.T.H.R.H.S.M.E.I.K.T.P.D.I.N.P.A.W.Y.A.S.R.G.I.R.P.V.G.R.F.[am]}|PEPTIDE2{[CCCCCCCCCCCCCCCC(=O)[*:2]].[gGlu]}$PEPTIDE1,PEPTIDE2,11:R3-2:R2$$$V2.0) as the molecule, how does the pEC50 [1] read?
Its pEC50 is 9.52.

What about the “plasma exposure 4 h after last dosing” value [2] of the same molecule?
Its value is “not detected in plasma; also recorded: undetectable in plasma”.

What about the “effect on food intake” value ([3]; 1,250 nmol/kg SC BID days 0-6, wash-out days 7-13, 24 h food intake measured daily) of the same molecule?
Its value is “significantly suppressed food intake during the treatment period, but not in the wash-out phase”.

And the “body weight loss, day 7” value ([3]; 1,250 nmol/kg SC BID for 7 days (days 0-6), after last dosing, n = 7-8 per group)?
Its value is 11.8 ± 1.0%.

What about the “body weight loss, day 13” value ([3]; 1,250 nmol/kg SC BID for 7 days, then 7-day wash-out, n = 7-8 per group) of the same molecule?
Its value is 8.1 ± 1.0%.

What about the “weight loss (as summarised in discussion)” value ([3]; subchronic SC treatment with 1,250 nmol/kg BID, time point not stated) of the same molecule?
The value was 8%.

And the pEC50 [4]?
The pEC50 was 6.83.
